The record followed here is patent US20260232740A1, “COMBINATIONS COMPRISING VITAMIN B2 AND LACTOBACILLUS RHAMNOSUS” (DSM IP Assets B.V., priority 2022, published 2026).

The test system of experiment [1] is Bifidobacterium adolescentis. The experiment in a line: Long-term SHIME fermentation (colon model), 16S rRNA gene sequencing and flow cytometry: levels of Bifidobacterium adolescentis in lumen of transverse colon. Also on record: species or system human. To be noted: average levels (log cells/mL), end of three-week treatment vs end of control period (n=3), probiotic 1*1010 CFU/reactor, vitamin B2 10 mg/day, p<0.05. The text has this:
(§1) The typical reactor setup of the SHIMER, representing the gastrointestinal tract of the adult human, was described by Molly et al. (1993) Applied Microbiology and Biotechnology 39 (2): 254-258. Inoculum preparation, retention time, pH, temperature settings and reactor feed composition were previously described by Possemiers et al. (2004) FEMS Microbiol Ecol. 49 (3): 495-507. Compared to the typical setup of the SHIME, the long-term SHIME experiment used for this example included some adaptations. In one reactor, at first, the conditions of the stomach were simulated, before being changed by the computer to conditions simulating the small intestine. […]
(§2) Samples for quantitative 16S-targeted Illumina sequencing were collected 3×/week during the last week of the control and treatment period. […] The obtained high-resolution proportional phylogenetic information (i.e., proportional abundances (%)) was combined with an accurate quantification of total bacterial cells via flow cytometry to obtain quantitative data at phylum, family, and species level. […] Samples were analyzed on a BD Facsverse (BDBiosciences, Erembodegem, Belgium) using the high-flow-rate setting and bacteria were separated from medium debris and signal noise by applying a threshold level of 200 on the SYTO channel. […]

The test system of a further experiment is Bifidobacteriaceae. The experiment in a line: Long-term SHIME fermentation (colon model), 16S rRNA gene sequencing: relative abundance of Bifidobacteriaceae in mucus of transverse colon. Also on record: species or system human. The settings on record: relative abundance (%), end of three-week treatment vs end of control period (n=3), probiotic 1*1010 CFU/reactor, vitamin B2 10 mg/day, p<0.05.
Description: as §1, §2

As for Lactobacillus rhamnosus GG, the “abundance of Bifidobacterium adolescentis compared to the control” value in experiment [1] was “did not significantly change”. Further, the “abundance of Bifidobacteriaceae compared to the control” value in the experiment with Bifidobacteriaceae was “did not significantly change”.
